Measurements: patent US6713265B1 (Synaptic Pharmaceutical Corporation, priority 1999, dated 2004)
Values joined by “and” are separate entries in the source; they are usually repeats but may differ in a detail not shown here. Equal entries are not always repeated. Structures can show the parent of a compound that is named as a salt.

Tests used:
[1] = system: NPY-induced feeding behavior; test: NPY-induced food intake in satiated rats; assay type: in vivo, rat; conditions: for Food intake, NPY + compound: compound 10 mg/kg i.p. then 300 pmole NPY i.c.v., 4 hours
Procedure: For these determinations food intake may be measured in normal satiated rats after intracerebroventricular application (i.c.v.) of NPY in the presence or absence of the test compound. Male Sprague Dawley rats (Ciba-Geigy AG, Sisseln, Switzerland) weighing between 180 g and 220 g are used for all experiments. The rats are individually housed in stainless steel cages and maintained on an 11:13 h light-dark cycle (lights off at 18:00 h) at a controlled temperature of 21-23° C. at all times. Water and food (NAFAG lab chow pellets NAFAG, Gossau, Switzerland) are available ad libidum.
Rats under pentobarbital anesthesia are stereotaxically implanted with a stainless steel guide cannula targeted at the right lateral ventricle. Stereotaxic coordinates, with the incisor bar set −2.0 mm below interaural line, are: −0.8 mm anterior and +1.3 mm lateral to bregma. The guide cannula is placed on the dura. Injection cannulas extend the guide cannulas −3.8 mm ventrally to the skull surface. Animals are allowed at least 4 days of recovery postoperatively before being used in the experiments. Cannula placement is checked postoperatively by testing all rats for their drinking response to a 50. ng intracerebroventricular (i.c.v.) injection of angiotensin II. Only rats which drink at least 2.5 ml of water within 30 min. after angiotensin II injection are used in the feeding studies.
All injections are made in the morning 2 hours after light onset. Peptides are injected in artificial cerebrospinal fluid (ACSF) in a volume of 5 μl. ACSF contains: NaCl 124 mM, KCl 3.75 mM, CaCl2 2.5 mM, MgSO4 2.0 mM, KH2PO4 0.22 mM, NaHCO3 26 mM and glucose 10 mM. Porcine-NPY (p-NPY) are dissolved in artificial cerebrospinal fluid (ACS). For i.c.v. injection the test compounds are preferably dissolved in DMSO/water (10%, v/v). The vehicle used for intraperitoneal (i.p.), subcutaneous (s.c.) or oral (p.o.) delivery of compounds is preferably water, physiological saline or DMSO/water (10% v/v), or cremophor/water (20% v/v), respectively.
Animals which are treated with both test compounds and porcine-NPY are treated first with the test compound.
Food intake may be measured by placing preweighed pellets into the cages at the time of NPY injection. Pellets are then removed from the cage subsequently at each selected time point and replaced with a new set of preweighed pellets. The food intake of animals treated with test compound may be calculated as a percentage of the food intake of control animals i.e., animals treated with vehicle. Alternatively, food intake for each group of animals subjected to a particular experimental condition may be expressed as the mean±S.E.M. Statistical analysis is performed by analysis of variance using the Student-Newman-Keuls test.
Food intake is reported as the mean±S.E.M. intake for a group of animals.

[2] = system: food intake; test: Food intake in food-deprived rats; assay type: in vivo, rat; conditions: 30 mg/kg i.p., after 24h food deprivation
Procedure: After receipt, the animals are individually housed for the duration of the study and allowed free access to normal food together with tap water. The animals are maintained in a room with a 12 h light/dark cycle (8:00 a.m. to 8:00 p.m. light) at 24° C. and monitored humidity. After placement into individual cages the rats undergo a 4 day equilibration period, during which they are habituated to their new environment and to eating a powdered or pellet diet NAFAG, Gossau, Switzerland).
At the end of the equilibration period, food is removed from the animals for 24 hours starting at 8:00 a.m. At the end of the fasting period compound or vehicle may be administered to the animals orally or by injection intraperitoneally or intravenously. After 10-60 min. food is returned to the animals and their food intake is monitored at various time periods during the following 24 hour period. The food intake of animals treated with test compound may be calculated as a percentage of the food intake of control animals (i.e., animals treated with vehicle). Alternatively, food intake for each group of animals subjected to a particular experimental condition may be expressed as the mean±S.E.M.
Measurements were performed two hours after administration of the test compound.

[3] = target: T1, α2c (Homo sapiens, UniProt P18825); test: Binding at cloned human α2c adrenergic receptor
T1 sequence (P18825 1-462): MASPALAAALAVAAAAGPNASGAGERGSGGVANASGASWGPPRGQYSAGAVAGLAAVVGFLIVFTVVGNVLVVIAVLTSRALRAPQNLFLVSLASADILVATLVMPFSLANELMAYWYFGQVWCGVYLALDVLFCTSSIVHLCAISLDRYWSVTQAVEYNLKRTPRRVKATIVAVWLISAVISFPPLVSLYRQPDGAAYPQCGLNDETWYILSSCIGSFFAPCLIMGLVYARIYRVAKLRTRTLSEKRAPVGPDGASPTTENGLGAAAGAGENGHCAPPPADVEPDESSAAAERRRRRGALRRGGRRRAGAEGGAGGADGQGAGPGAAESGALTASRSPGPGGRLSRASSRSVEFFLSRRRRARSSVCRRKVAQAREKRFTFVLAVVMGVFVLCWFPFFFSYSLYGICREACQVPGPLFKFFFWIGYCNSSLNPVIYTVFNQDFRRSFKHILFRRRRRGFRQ

[4] = target: T2, human Y4 receptor (Homo sapiens, UniProt P50391); test: ^125I-PYY binding to membranes, cloned human Y4 receptor; conditions: read-out: Binding Affinity Ki vs. ^125I-PYY, Human Receptor Y4; Table 14; stably transfected LM(tk-) cells
T2 construct: expressed in transfected cells; host or cells: COS-7 (transient)
T2 sequence (P50391 whole entry): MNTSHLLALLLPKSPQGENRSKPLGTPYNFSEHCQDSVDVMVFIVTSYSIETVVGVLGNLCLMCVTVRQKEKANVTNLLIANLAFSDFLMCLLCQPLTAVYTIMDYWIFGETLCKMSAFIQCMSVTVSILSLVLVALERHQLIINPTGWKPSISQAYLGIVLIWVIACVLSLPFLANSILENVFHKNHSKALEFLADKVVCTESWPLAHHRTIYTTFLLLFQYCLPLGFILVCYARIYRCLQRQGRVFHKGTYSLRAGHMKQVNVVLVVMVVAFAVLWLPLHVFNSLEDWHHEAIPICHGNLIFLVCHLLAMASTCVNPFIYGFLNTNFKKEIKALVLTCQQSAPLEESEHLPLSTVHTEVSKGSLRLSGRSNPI

[5] = target: T3, human Y2 receptor (Homo sapiens, UniProt P49146); test: ^125I-PYY binding to membranes, cloned human Y2 receptor; conditions: read-out: Binding Affinity Ki vs. ^125I-PYY, Human Receptor Y2; Table 14; stably transfected 293 cells (compound 1 also COS-7)
T3 construct: expressed in transfected cells; host or cells: COS-7 (transient)
T3 sequence (P49146 1-381): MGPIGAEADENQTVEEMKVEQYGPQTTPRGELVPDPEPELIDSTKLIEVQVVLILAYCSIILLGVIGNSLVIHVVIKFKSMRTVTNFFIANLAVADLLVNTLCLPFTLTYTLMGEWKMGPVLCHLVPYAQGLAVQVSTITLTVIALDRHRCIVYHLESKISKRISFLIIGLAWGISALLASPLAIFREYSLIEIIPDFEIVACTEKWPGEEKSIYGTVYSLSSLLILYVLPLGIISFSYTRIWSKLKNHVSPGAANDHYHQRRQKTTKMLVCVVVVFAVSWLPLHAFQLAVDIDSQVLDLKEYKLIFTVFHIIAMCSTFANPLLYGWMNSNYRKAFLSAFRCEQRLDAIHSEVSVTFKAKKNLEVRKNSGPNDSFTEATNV

[6] = target: T4, human Y1 receptor (Homo sapiens, UniProt P25929); test: ^125I-PYY binding to membranes, cloned human Y1 receptor; conditions: read-out: Binding Affinity Ki vs. ^125I-PYY, Human Receptor Y1; Table 14; stably transfected 293 cells (compound 1 also COS-7)
T4 construct: expressed in transfected cells; host or cells: COS-7 (transient)
T4 sequence (P25929 1-384): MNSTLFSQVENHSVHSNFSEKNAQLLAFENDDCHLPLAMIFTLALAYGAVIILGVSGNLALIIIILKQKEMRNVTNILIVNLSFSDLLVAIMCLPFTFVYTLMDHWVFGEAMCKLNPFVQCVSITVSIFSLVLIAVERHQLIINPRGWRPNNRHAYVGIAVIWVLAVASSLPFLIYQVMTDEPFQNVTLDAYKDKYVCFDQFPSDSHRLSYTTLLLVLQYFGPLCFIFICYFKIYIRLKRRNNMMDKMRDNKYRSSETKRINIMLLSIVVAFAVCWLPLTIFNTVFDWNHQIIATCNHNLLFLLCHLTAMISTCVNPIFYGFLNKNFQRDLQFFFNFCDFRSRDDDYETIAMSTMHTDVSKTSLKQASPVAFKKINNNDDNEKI

[7] = target: T5, human Y5 receptor (Homo sapiens, UniProt Q15761); test: Radioligand binding to membranes of cells expressing cloned human Y5 receptor; set-up: Ki Values, Human Y5; apparent Kd; pKd; The isolated clone (CG-19) turned out to contain a full length cDNA; The longest open reading frame encodes a 455 amino acid protein; conditions: read-out: Binding Affinity Ki vs. ^125I-PYY, Human Receptor Y5; Table 14; stably transfected LM(tk-) cells
T5 sequence (Q15761 1-445): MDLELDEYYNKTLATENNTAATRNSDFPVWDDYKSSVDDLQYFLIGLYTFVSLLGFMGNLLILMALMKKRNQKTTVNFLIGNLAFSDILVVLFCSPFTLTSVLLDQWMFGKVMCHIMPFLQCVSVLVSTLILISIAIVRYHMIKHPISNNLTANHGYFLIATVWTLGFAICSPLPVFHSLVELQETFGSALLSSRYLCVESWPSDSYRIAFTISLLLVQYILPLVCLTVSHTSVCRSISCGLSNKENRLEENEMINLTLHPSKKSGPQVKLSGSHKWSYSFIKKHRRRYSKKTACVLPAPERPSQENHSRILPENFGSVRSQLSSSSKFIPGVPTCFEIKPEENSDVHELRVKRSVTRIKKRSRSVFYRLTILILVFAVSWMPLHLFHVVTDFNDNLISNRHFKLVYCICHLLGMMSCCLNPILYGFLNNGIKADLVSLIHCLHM

[8] = target: T5, human Y5 receptor; test: Radioimmunoassay of cAMP, cells stably expressing human Y5 receptor; assay type: cell-based; set-up: Ki Values, Human Y5; apparent Kd; pKd; The isolated clone (CG-19) turned out to contain a full length cDNA; The longest open reading frame encodes a 455 amino acid protein; conditions: block of NPY-induced inhibition of cAMP accumulation, forskolin-stimulated LM(tk-) cells, human Y5
Procedure: LM(tk-) cells stably transfected with the human Y5 receptor were routinely converted from an adherent monolayer to a viable suspension. […] The cell suspension was maintained in a shaking incubator at 37° C., 5% CO2 for 24 hours. […] Alternatively, cells may be returned to adherent cell culture in complete DMEM by distribution into 96-well microtiter plates coated with poly-D-lysine (0.01 mg/ml) followed by incubation at 37° C., 5% CO2 for 24 hours.
The maximum inhibition of cAMP accumulation (Emax) and the concentration producing a half-maximal effect (EC50) were determined by nonlinear regression analysis according to a 4 parameter logistic equation.
The ability of the compounds to antagonize the Y-type receptors is reported as the Kb. […] The results shown are representative of at least three independent experiments.

**Q.** How did the “Food intake, NPY + compound” value ([1]; mean ± S.E.M.) turn out when `c1ccc(Nc2nc(Nc3ccccc3)c3ccccc3n2)cc1` [Compound 1, 2,4-Diphenylamino-guinazoline hydrochloride] was run?
**A.** 4.6 ± 0.6 g

**Q.** Which “Two-hour food intake of food-deprived rats, percentage of intake compared to control rats, Mean” value [2] does the source give for `Nc1nc(NCCCCCCNS(=O)(=O)c2cccc3ccccc23)nc2ccccc12` [Compound 2, Naphthalene-1-sulfonic acid [6-(4-amino-quinazolin-2-ylamino)-hexyl]-amide] here?
**A.** 42%

**Q.** How did the “Food intake, NPY + compound” value ([1]; mean ± S.E.M.) turn out when `Cl.Nc1nc(NC[C@H]2CC[C@H](CNS(=O)(=O)c3cccc4ccccc34)CC2)nc2ccccc12` [Compound 5, trans-Naphthalene-1-sulfonic acid {4-[(4-amino-quinazolin-2-ylamino)-methyl]-cyclohexylmethyl}-amide hydrochloride] was run?
**A.** 4.1 ± 0.4 g

**Q.** For `Cl.Cl.c1ccc(Nc2nc(Nc3ccc(N4CCCCC4)cc3)nc3ccccc23)cc1` [Compound 6, 2-[4-(Piperidin-1-yl)-phenylamino]-4-Phenylamino-quinazoline dihydrochloride], which “Two-hour food intake of food-deprived rats, percentage of intake compared to control rats, Mean” value [2] is on record?
**A.** 38%

**Q.** And the Ki [3]?
**A.** 0.447 µM

**Q.** With `CC(=O)O[C@H]1CC[C@H](Nc2nc(Nc3ccccc3)c3ccccc3n2)CC1.Cl` [Compound 7, trans-2-(4-Acetoxy-cyclohexylamino)-4-Phenylamino-quinazoline hydrochloride] as the molecule, how does the “Two-hour food intake of food-deprived rats, percentage of intake compared to control rats, Mean” value [2] read?
**A.** 47%

**Q.** `COc1ccc(Nc2nc(Nc3ccccc3)c3cccc(OC)c3n2)cc1.Cl` [Compound 9, 8-Methoxy-2-(4-methoxy-phenylamino)-4-phenylamino-quinazoline hydrochloride] was tested. Which “Two-hour food intake of food-deprived rats, percentage of intake compared to control rats, Mean” value [2] did it give?
**A.** 40%

**Q.** Which “Two-hour food intake of food-deprived rats, percentage of intake compared to control rats, Mean” value [2] does the source give for `CNS(=O)(=O)Cc1ccc(Nc2nc(Nc3ccccc3)c3cc(OC)ccc3n2)cc1` [Compound 10, N-Methyl-[4-(6-methoxy-4-phenylamino-quinazolin-2-ylamino)-phenyl1-methanesulfonamide hydrochloride] here?
**A.** 74%

**Q.** Which “Two-hour food intake of food-deprived rats, percentage of intake compared to control rats, Mean” value [2] does the source give for `CNS(=O)(=O)Cc1ccc(Nc2nc(Nc3ccccc3)c3ccccc3n2)cc1.Cl` [Compound 11, N-Methyl-[4-(4-Phenylamino-quinazolin-2-ylamino)-phenyl]-methanesulfonamide hydrochloride] here?
**A.** 15%

**Q.** With `Cl.O=S(=O)(NC[C@H]1CC[C@H](CNCc2ccc3ccccc3c2)CC1)c1ccccc1C(F)(F)F` [Compound 21] as the molecule, how does the Ki [4] read?
**A.** 18.5 µM

**Q.** And the Ki [5]?
**A.** 1.61 µM

**Q.** And the “Two-hour food intake of food-deprived rats, percentage of intake compared to control rats, Mean” value [2]?
**A.** 80%

**Q.** What about the Ki [6] of the same molecule?
**A.** 13 µM

**Q.** And the Ki [7]?
**A.** 0.0098 µM

**Q.** For `Cl.O=S(=O)(NC[C@H]1CC[C@H](CNCc2cccc3ccccc23)CC1)c1ccccc1C(F)(F)F` [Compound 23], which Ki [4] is on record?
**A.** 21.5 µM

**Q.** What about the Ki [5] of the same molecule?
**A.** 0.617 µM

**Q.** And the “Two-hour food intake of food-deprived rats, percentage of intake compared to control rats, Mean” value [2]?
**A.** 58%

**Q.** What about the Kb [8] of the same molecule?
**A.** 0.038 µM

**Q.** What about the Ki [6] of the same molecule?
**A.** 14.5 µM

**Q.** And the Ki [7]?
**A.** 0.026 µM

**Q.** With `Cl.Cl.O=[N+]([O-])c1ccccc1S(=O)(=O)NC[C@H]1CC[C@H](CNCc2ccc3ccccc3n2)CC1` [Compound 26] as the molecule, how does the Ki [4] read?
**A.** 19.3 µM

**Q.** And the Ki [5]?
**A.** 58.2 µM

**Q.** What about the “Two-hour food intake of food-deprived rats, percentage of intake compared to control rats, Mean” value [2] of the same molecule?
**A.** 73%

**Q.** And the Ki [6]?
**A.** 23.7 µM

**Q.** What does the source list for “NPY: peptide neurotransmitter neuropeptide Y, 36 amino acids; feeding studies used 300 pmole of porcine NPY i.c.v.”?
**A.** Food intake, NPY ([1]; 300 pmole NPY i.c.v. alone, cumulative intake 4 hours after NPY, mean ± S.E.M.): 7.4 ± 0.5 g and 6.8 ± 1.0 g and 5.8 ± 0.5 g and 4.9 ± 0.4 g; food intake of NPY-stimulated animals compared to vehicles ([1]; 300 pmole i.c.v., p<0.05 Student-Newman-Keuls): significantly induce food intake
